These results are taken from US8269015B2, “4-azetidinyl-1-heteroaryl-cyclohexane antagonists of CCR2” (Janssen Pharmaceutica N.V., priority 2009, dated 2012).

One may read the IC50 as the concentration that gives 50% inhibition.

Where a name gives a salt, the structure may show the parent alone.

This test addresses T1, CCR2 (Homo sapiens, UniProt P41597).
T1 construct: host or cells: THP-1 (human monocytic cell line)
T1 sequence (P41597 1-360 isoform P41597-2): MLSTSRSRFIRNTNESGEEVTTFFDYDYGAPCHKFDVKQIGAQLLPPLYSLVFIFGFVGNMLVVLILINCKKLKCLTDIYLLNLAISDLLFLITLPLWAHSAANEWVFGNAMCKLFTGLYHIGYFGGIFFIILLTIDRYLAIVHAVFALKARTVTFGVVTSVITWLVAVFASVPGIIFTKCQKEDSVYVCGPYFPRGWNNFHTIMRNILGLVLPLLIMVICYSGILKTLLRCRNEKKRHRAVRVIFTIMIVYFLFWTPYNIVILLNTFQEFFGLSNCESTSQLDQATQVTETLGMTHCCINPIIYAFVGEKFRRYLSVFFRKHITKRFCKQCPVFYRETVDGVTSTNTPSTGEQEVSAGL
The test can be described thus: MCP-1 Receptor Binding Assay in THP-1 Cells (125I labeled MCP-1). The conditions noted are these: 0.5 nM 125I labeled MCP-1, 2 hours at 30° C., read-out: Inhibition of MCP-1 Binding IC50, CCR2 Binding. The procedure: Compounds of the invention were subjected to various representative biological tests. […] MCP-1 Receptor Binding Assay in THP-1 Cells
Human monocytic cell line THP-1 cells were obtained from American Type Culture Collection (Manassas, Va., USA). […] The cell density was maintained […].
1 μM cold MCP-1 was used for nonspecific binding.
Consider `O=C(CNC(=O)c1cccc(C(F)(F)F)c1)NC1CN(C2CCC(c3cnc(C(=O)O)s3)CC2)C1` (single isomer, unassigned) [Example 52a, 5-(4-{3-[2-(3-Trifluoromethyl-benzoylamino)-acetylamino]-azetidin-1-yl}-cyclohexyl)-thiazole-2-carboxylic acid], for which the IC50 turned out to be 2.8 µM. As to `COc1ccc(C2(F)CCC(N3CC(NC(=O)CNC(=O)c4cccc(C(F)(F)F)c4)C3)CC2)cn1` (single isomer, unassigned) [Example 64a, N-({1-[4-Fluoro-4-(6-methoxy-pyridin-3-yl)-cyclohexyl]-azetidin-3-ylcarbamoyl}-methyl)-3-trifluoromethyl-benzamide], the IC50 stood at 0.11 µM.

`COc1ncccc1C1CCC(N2CC(NC(=O)CNC(=O)c3cccc(C(F)(F)F)c3)C2)CC1` (stereo not shown) [Example 2, N-({1-[4-(2-Methoxy-pyridin-3-yl)-cyclohexyl]-azetidin-3-ylcarbamoyl}-methyl)-3-trifluoromethyl-benzamide]: the IC50 was 0.21 µM. For `O=C(CNC(=O)c1cccc(C(F)(F)F)c1)NC1CN(C2CCC(c3ncccc3O)CC2)C1` (stereo not shown) [Example 3, N-({1-[4-(3-Hydroxy-pyridin-2-yl)-cyclohexyl]-azetidin-3-ylcarbamoyl}-methyl)-3-trifluoromethyl-benzamide] the value was 0.024 µM; for `O=C(CNC(=O)c1cccc(C(F)(F)F)c1)NC1CN(C2CCC(c3ccc(O)cn3)CC2)C1` (stereo not shown) [Example 4, N-({1-[4-(5-Hydroxy-pyridin-2-yl)-cyclohexyl]-azetidin-3-ylcarbamoyl}-methyl)-3-trifluoromethyl-benzamide hemisuccinate salt], 0.013 µM; for `O=C(CNC(=O)c1cccc(C(F)(F)F)c1)NC1CN(C2CCC(c3cncc(O)c3)CC2)C1` (stereo not shown) [Example 5, N-({1-[4-(5-Hydroxy-pyridin-3-yl)-cyclohexyl]-azetidin-3-ylcarbamoyl}-methyl)-3-trifluoromethyl-benzamide], 0.26 µM.

On to `Cc1ccc(O)c(C2CCC(N3CC(NC(=O)CNC(=O)c4cccc(C(F)(F)F)c4)C3)CC2)n1` (stereo not shown) [Example 6, N-({1-[4-(3-Hydroxy-6-methyl-pyridin-2-yl)-cyclohexyl]-azetidin-3-ylcarbamoyl}-methyl)-3-trifluoromethyl-benzamide], for which the IC50 was found to be 0.05 µM. For `COc1cc(C2CCC(N3CC(NC(=O)CNC(=O)c4cccc(C(F)(F)F)c4)C3)CC2)ccn1` (stereo not shown) [Example 7, N-({1-[4-(2-Methoxy-pyridin-4-yl)-cyclohexyl]-azetidin-3-ylcarbamoyl}-methyl)-3-trifluoromethyl-benzamide] the value was 0.032 µM; for `COc1cnccc1C1CCC(N2CC(NC(=O)CNC(=O)c3cccc(C(F)(F)F)c3)C2)CC1` (stereo not shown) [Example 8, N-({1-[4-(3-Methoxy-pyridin-4-yl)-cyclohexyl]-azetidin-3-ylcarbamoyl}-methyl)-3-trifluoromethyl-benzamide], 0.025 µM; for `O=C(CNC(=O)c1cccc(C(F)(F)F)c1)NC1CN(C2CCC(c3ccncc3O)CC2)C1` (stereo not shown) [Example 9, N-({1-[4-(3-Hydroxy-pyridin-4-yl)-cyclohexyl]-azetidin-3-ylcarbamoyl}-methyl)-3-trifluoromethyl-benzamide], 0.052 µM. As for `O=C(CNC(=O)c1cccc(C(F)(F)F)c1)NC1CN(C2CCC(c3cccnc3O)CC2)C1` (stereo not shown) [Example 10, N-({1-[4-(2-Hydroxy-pyridin-3-yl)-cyclohexyl]-azetidin-3-ylcarbamoyl}-methyl)-3-trifluoromethyl-benzamide], the figure is 0.97 µM; as for `O=C(CNC(=O)c1cccc(C(F)(F)F)c1)NC1CN(C2CCC(c3cnccc3O)CC2)C1` (stereo not shown) [Example 11, N-({1-[4-(4-Hydroxy-pyridin-3-yl)-cyclohexyl]-azetidin-3-ylcarbamoyl}-methyl)-3-trifluoromethyl-benzamide], 0.46 µM.

As for `O=C(CNC(=O)c1cccc(C(F)(F)F)c1)NC1CN(C2CCC(c3cc(O)ccn3)CC2)C1` (stereo not shown) [Example 12, N-({1-[4-(4-Hydroxy-pyridin-2-yl)-cyclohexyl]-azetidin-3-ylcarbamoyl}-methyl)-3-trifluoromethyl-benzamide], the IC50 is over 25 µM.

In the case of `CC(=O)Nc1ccc(C2CCC(N3CC(NC(=O)CNC(=O)c4cccc(C(F)(F)F)c4)C3)CC2)nc1` (stereo not shown) [Example 13, N-({1-[4-(5-Acetylamino-pyridin-2-yl)-cyclohexyl]-azetidin-3-ylcarbamoyl}-methyl)-3-trifluoromethyl-benzamide], the IC50 came to 0.09 µM. As for `CS(=O)(=O)N(c1ccc(C2CCC(N3CC(NC(=O)CNC(=O)c4cccc(C(F)(F)F)c4)C3)CC2)nc1)S(C)(=O)=O` (stereo not shown) [Example 14, N-({1-[4-(5-bis-{Methanesulfonyl}-amino-pyridin-2-yl)-cyclohexyl]-azetidin-3-ylcarbamoyl}-methyl)-3-trifluoromethyl-benzamide], the figure is 0.28 µM. On to `CS(=O)(=O)Nc1ccc(C2CCC(N3CC(NC(=O)CNC(=O)c4cccc(C(F)(F)F)c4)C3)CC2)nc1` (stereo not shown) [Example 15, N-({1-[4-(5-Methanesulfonyl-amino-pyridin-2-yl)-cyclohexyl]-azetidin-3-ylcarbamoyl}-methyl)-3-trifluoromethyl-benzamide], for which the IC50 was 0.23 µM. As for `O=C(CNC(=O)c1cccc(C(F)(F)F)c1)NC1CN(C2CCC(c3ccc(NC(=O)C(F)(F)F)cn3)CC2)C1` (stereo not shown) [Example 16, N-[(1-{4-[5-(2,2,2-Trifluoro-acetylamino)-pyridin-2-yl]-cyclohexyl}-azetidin-3-ylcarbamoyl)-methyl]-3-trifluoromethyl-benzamide], the figure is 0.095 µM. As for `O=C(CNC(=O)c1cccc(C(F)(F)F)c1)NC1CN(C2CCC(c3ncccc3NC(=O)C(F)(F)F)CC2)C1` (stereo not shown) [Example 17, N-[(1-{4-[3-(2,2,2-Trifluoro-acetylamino)-pyridin-2-yl]-cyclohexyl}-azetidin-3-ylcarbamoyl)-methyl]-3-trifluoromethyl-benzamide], the figure is 0.92 µM; as for `CC(=O)Nc1cccnc1C1CCC(N2CC(NC(=O)CNC(=O)c3cccc(C(F)(F)F)c3)C2)CC1` (stereo not shown) [Example 18, N-({1-[4-(3-Acetylamino-pyridin-2-yl)-cyclohexyl]-azetidin-3-ylcarbamoyl}-methyl)-3-trifluoromethyl-benzamide], 0.38 µM; as for `CS(=O)(=O)Nc1cccnc1C1CCC(N2CC(NC(=O)CNC(=O)c3cccc(C(F)(F)F)c3)C2)CC1` (stereo not shown) [Example 19, N-({1-[4-(3-Methanesulfonylamino-pyridin-2-yl)-cyclohexyl]-azetidin-3-ylcarbamoyl}-methyl)-3-trifluoromethyl-benzamide], 1.9 µM. For `Nc1ccc(C2CCC(N3CC(NC(=O)CNC(=O)c4cccc(C(F)(F)F)c4)C3)CC2)nc1` (stereo not shown) [Example 21, N-({1-[4-(5-Amino-pyridin-2-yl)-cyclohexyl]-azetidin-3-ylcarbamoyl}-methyl)-3-trifluoromethyl-benzamide] the value was 0.085 µM; for `O=C(CNC(=O)c1cccc(C(F)(F)F)c1)NC1CN(C2CCC(c3cccc(NC(=O)C(F)(F)F)n3)CC2)C1` (stereo not shown) [Example 24, N-[(1-{4-[6-(2,2,2-Trifluoro-acetylamino)-pyridin-2-yl]-cyclohexyl}-azetidin-3-ylcarbamoyl)-methyl]-3-trifluoromethyl-benzamide], 0.06 µM; for `N#CNc1cccc(C2CCC(N3CC(NC(=O)CNC(=O)c4cccc(C(F)(F)F)c4)C3)CC2)n1` (stereo not shown) [Example 25, N-({1-[4-(6-Cyanoamino-pyridin-2-yl)-cyclohexyl]-azetidin-3-ylcarbamoyl}-methyl)-3-trifluoromethyl-benzamide], 0.21 µM. `CS(=O)(=O)Nc1cccc(C2CCC(N3CC(NC(=O)CNC(=O)c4cccc(C(F)(F)F)c4)C3)CC2)n1` (stereo not shown) [Example 26, N-({1-[4-(6-Methanesulfonylamino-pyridin-2-yl)-cyclohexyl]-azetidin-3-ylcarbamoyl}-methyl)-3-trifluoromethyl-benzamide]: the IC50 is 0.84 µM. `Nc1cccc(C2CCC(N3CC(NC(=O)CNC(=O)c4ccc(F)c(C(F)(F)F)c4)C3)CC2)n1` (stereo not shown) [Example 28, N-({1-[4-(6-Amino-pyridin-2-yl)-cyclohexyl]-azetidin-3-ylcarbamoyl}-methyl)-4-fluoro-3-trifluoromethyl-benzamide]: the IC50 amounted to 0.089 µM.

As for `CNc1ccncc1C1CCC(N2CC(NC(=O)CNC(=O)c3cccc(C(F)(F)F)c3)C2)CC1` (stereo not shown) [Example 29a, N-({1-[4-(4-Methylamino-pyridin-3-yl)-cyclohexyl]-azetidin-3-ylcarbamoyl}-methyl)-3-trifluoromethyl-benzamide], the IC50 is 1.2 µM. With `CN(C)c1ccncc1C1CCC(N2CC(NC(=O)CNC(=O)c3cccc(C(F)(F)F)c3)C2)CC1` (stereo not shown) [Example 29b, N-({1-[4-(4-Dimethylamino-pyridin-3-yl)-cyclohexyl]-azetidin-3-ylcarbamoyl}-methyl)-3-trifluoromethyl-benzamide], the IC50 worked out at 10 µM. `Nc1cncc(C2CCC(N3CC(NC(=O)CNC(=O)c4cccc(C(F)(F)F)c4)C3)CC2)c1` (stereo not shown) [Example 32, N-({1-[4-(5-Amino-pyridin-3-yl)-cyclohexyl]-azetidin-3-ylcarbamoyl}-methyl)-3-trifluoromethyl-benzamide]: the IC50 amounted to 0.32 µM.
